Values of other authors, collected in patent US20240299410A1 (Woolsey Pharmaceuticals, Inc., priority 2022, published 2024).
Structures can show the parent of a compound that is named as a salt. Where two headings read alike, the source gives them in different places.

Experiments:
[1] = oral fasudil in drinking water; cited from earlier work
SOD mice = conditions: cited from earlier work; for motor function: presymptomatic SOD mice, 30 mg/kg in drinking water (Günther et al. 2014)
human ALS patients = conditions: three ALS patients, 30 mg intravenously twice daily over 20 consecutive working days; cited from earlier work
[2] = humans, intravenous administration, after an hour; cited from earlier work
[3] = male SOD mice, both 30 mg/kg and 100 mg/kg (Takata 2013)

For `O=S(=O)(c1cccc2c(O)nccc12)N1CCCNCC1` [M3, hydroxyfasudil], the “M3 in male rats relative to female rats” value [1] is given as ~7 fold.
For `C[C@@H](N)[C@H]1CC[C@H](C(=O)Nc2ccncc2)CC1` [Y-27632], the motor function (SOD mice; female) is listed as “did not significantly improve motor function” and the motor function (SOD mice; male) is listed as “improved motor function”.
In the case of `O=S(=O)(c1cccc2cnccc12)N1CCCNCC1` [fasudil, Hexahydro-1-(5-isoquinolinesulfonyl)-1H-1,4-diazepine monohydrochloride hemihydrate], the “outcome of compassionate use treatment” value (human ALS patients) is given as “no conclusive results beyond safety”, the “mixture of fasudil and M3 in CSF” value [2] is given as 50/50 and the motor behavior (SOD mice; male SOD mice, 30 mg/kg and 100 mg/kg beginning at disease onset (Günther 2017)) is given as “significantly improved motor behavior”. For the same compound, the survival time (SOD mice; [3]) was “prolonged survival time”, the “symptom onset (motor performance, motor neuron loss)” value (SOD mice; [3]) was “delayed symptom onset” and the “prolonging disease duration, 100 mg/kg versus 30 mg/kg” value (SOD mice; presymptomatic female SOD mice, oral (Tönges et al. 2013)) was “not as effective at prolonging disease duration as the lower dose”.
